This note sets out measurements from PubChem BioAssay (NCI).

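Grown in 96-well plates, cells were treated for 48 hours with each compound at five concentrations. Insufficient inhibition: endpoint recorded as highest concentration tested. The concentration for 50% growth inhibition is given as GI50. TGI: total growth inhibition.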

Some test systems named below: UACC-257 melanoma; HOP-62 NSCLC; SF-268 CNS; SK-OV-3 ovarian; NCI-H522 lung; DU-145 prostate; HS 578T breast; COLO 205 colon; SK-MEL-28 melanoma; SF-295 CNS; NCI-H23 lung; TK-10 renal; UO-31 renal; UACC-62 melanoma; KM12 colon; 786-0 renal.
Holding throughout (assay): NCI-60 cell line screen, 48 h

Turning to `C(/C=C/Nc1ccc(-c2ccccc2)cc1)=Nc1ccc(-c2ccccc2)cc1`, the TGI with UACC-257 melanoma, with HOP-62 NSCLC, in the assay on SF-268 CNS, in the assay on SK-OV-3 ovarian, in the assay with NCI-H522 lung and in the assay with DU-145 prostate was above 100 µM in each case. In addition, the TGI with HS 578T breast, in the assay on COLO 205 colon, with SK-MEL-28 melanoma, in the assay on SF-295 CNS, with NCI-H23 lung and in the assay on TK-10 renal was above 100 µM each time. The TGI in the assay on UO-31 renal, in the assay with UACC-62 melanoma, with KM12 colon and with 786-0 renal was above 100 µM in each case.
In the case of `CC(C)C[C@H](NC(=O)CCc1cccc2ccccc12)B(O)O`, the TGI was 3.91 µM in the assay on UACC-257 melanoma; 14.3 µM in the assay on HOP-62 NSCLC; 10.1 µM with SF-268 CNS; above 86.4 µM in the assay on SK-OV-3 ovarian; 4.95 µM in the assay with NCI-H522 lung; above 65.6 µM with DU-145 prostate. Further, the TGI was found to be 7.4 µM in the assay on HS 578T breast; 36.3 µM in the assay on COLO 205 colon; 4.05 µM in the assay on SK-MEL-28 melanoma; 20.2 µM with SF-295 CNS; 7.81 µM in the assay on NCI-H23 lung; 12.4 µM with TK-10 renal. Besides, the TGI stood at 8.73 µM in the assay with UO-31 renal, 5.59 µM in the assay with UACC-62 melanoma, 5.4 µM with KM12 colon and 28.3 µM with 786-0 renal.
`COC(=O)C1SC[C@H]2C(=O)N(c3ccccc3)C(=O)N12` (some centres undefined): the TGI in the assay with UACC-257 melanoma, in the assay on HOP-62 NSCLC, in the assay on SF-268 CNS, in the assay with SK-OV-3 ovarian, in the assay with NCI-H522 lung and with DU-145 prostate was above 100 µM throughout. Also, the TGI in the assay with HS 578T breast, in the assay with COLO 205 colon, in the assay on SK-MEL-28 melanoma, in the assay with SF-295 CNS, with NCI-H23 lung and in the assay on TK-10 renal was above 100 µM in each case. Further, the TGI with UO-31 renal, with UACC-62 melanoma, in the assay with KM12 colon and in the assay on 786-0 renal was above 100 µM throughout.
Turning to `COc1ccc2c(c1)c(=O)c1c(NCCCN(C)C)ccc3ncn2c31`, the TGI with UACC-257 melanoma worked out at 27 µM; with HOP-62 NSCLC, 15 µM; in the assay on SF-268 CNS it was 16.1 µM; in the assay with SK-OV-3 ovarian, 22.1 µM; with NCI-H522 lung it was 21.4 µM; with DU-145 prostate it was 18.7 µM. In addition, the TGI was found to be 29.3 µM in the assay on HS 578T breast; 18.6 µM in the assay with COLO 205 colon; 26.4 µM in the assay on SK-MEL-28 melanoma; 15.2 µM with SF-295 CNS; 21 µM in the assay on NCI-H23 lung; 20.1 µM in the assay with TK-10 renal. Further, the TGI in the assay on UO-31 renal was found to be 16.1 µM; in the assay on UACC-62 melanoma, 28.7 µM; with KM12 colon it was 15.5 µM; with 786-0 renal it was 14.9 µM.
`COc1ccc(NC(=S)Nc2c(C)n(C)n(-c3ccccc3)c2=O)cc1`: the TGI with UACC-257 melanoma, in the assay with HOP-62 NSCLC, in the assay with SF-268 CNS, in the assay with SK-OV-3 ovarian, in the assay with NCI-H522 lung and with DU-145 prostate was above 100 µM each time. The TGI in the assay with HS 578T breast, with COLO 205 colon, in the assay with SK-MEL-28 melanoma, in the assay on SF-295 CNS, with NCI-H23 lung and in the assay on TK-10 renal was above 100 µM each time. In addition, the TGI with UO-31 renal, in the assay with UACC-62 melanoma, in the assay with KM12 colon and in the assay on 786-0 renal was above 100 µM each time.
With `Cc1ccc(NC(=S)N=Nc2c(O)[nH]c3ccccc23)cc1`, the TGI with UACC-257 melanoma, with HOP-62 NSCLC, in the assay with SF-268 CNS, in the assay with SK-OV-3 ovarian, with NCI-H522 lung and in the assay on DU-145 prostate was above 100 µM in each case. The TGI in the assay on HS 578T breast, with COLO 205 colon, with SK-MEL-28 melanoma, with SF-295 CNS, with NCI-H23 lung and in the assay with TK-10 renal was above 100 µM in each case. Besides, the TGI in the assay on UO-31 renal, with UACC-62 melanoma, in the assay on KM12 colon and with 786-0 renal was above 100 µM throughout.
For the compound `Cc1cc(=O)n2nc(CSc3n[nH]c(=S)s3)sc2n1`, the TGI in the assay with UACC-257 melanoma, in the assay with HOP-62 NSCLC, in the assay with SF-268 CNS, in the assay with SK-OV-3 ovarian, in the assay with NCI-H522 lung and with DU-145 prostate was above 100 µM throughout. In addition, the TGI in the assay with HS 578T breast, in the assay with COLO 205 colon, in the assay with SK-MEL-28 melanoma, with SF-295 CNS, in the assay with NCI-H23 lung and with TK-10 renal was above 100 µM in each case. The TGI in the assay on UO-31 renal, with UACC-62 melanoma, in the assay on KM12 colon and in the assay with 786-0 renal was above 100 µM each time.
For the compound `CS(=O)(=O)CCC(N)P(=O)(O)O` (centres undefined), the TGI with UACC-257 melanoma, in the assay on HOP-62 NSCLC, with SF-268 CNS, with SK-OV-3 ovarian, with NCI-H522 lung and with DU-145 prostate was above 100 µM throughout. The TGI with HS 578T breast, in the assay with COLO 205 colon, in the assay with SK-MEL-28 melanoma, in the assay on SF-295 CNS, in the assay on NCI-H23 lung and with TK-10 renal was above 100 µM in each case. Further, the TGI in the assay on UO-31 renal, in the assay with UACC-62 melanoma, with KM12 colon and with 786-0 renal was above 100 µM in each case.
In the case of `OC1(C2(c3ccc(Cl)cc3)CCCC2)c2ccccc2C2=NCCN21` (centres undefined), the TGI in the assay on UACC-257 melanoma came out at 29.4 µM; with HOP-62 NSCLC it was 32.6 µM; in the assay on SF-268 CNS, 35.1 µM; with SK-OV-3 ovarian, 33.9 µM; with NCI-H522 lung, 32.3 µM; in the assay on DU-145 prostate, 16.3 µM. In addition, the TGI in the assay with HS 578T breast was above 100 µM; in the assay with COLO 205 colon it was 23.9 µM; in the assay with SK-MEL-28 melanoma, 31 µM; in the assay with SF-295 CNS it was 30.7 µM; with NCI-H23 lung, 36.1 µM; with TK-10 renal it was 28.9 µM. Moreover, the TGI is 24.1 µM with UO-31 renal, 29.7 µM in the assay on UACC-62 melanoma, 36.3 µM in the assay with KM12 colon and 27.3 µM in the assay on 786-0 renal.
In the case of `C[C@H]1[C@H](C)CC[C@]2(C(=O)OC3OC(CO)C(O)C(O)C3O)CC[C@]3(C)C(=CC[C@@H]4[C@@]5(C)C[C@@H](O)[C@@H]6OC(=O)c7cc(O)c(O)c(O)c7-c7c(cc(O)c(O)c7O)C(=O)OC[C@]6(CO)[C@@H]5CC[C@]43C)[C@H]12` (some centres undefined), the TGI in the assay on UACC-257 melanoma was above 100 µM; with HOP-62 NSCLC it was above 71.1 µM; in the assay on SF-268 CNS it was above 100 µM; with SK-OV-3 ovarian, above 100 µM; in the assay with NCI-H522 lung, 37.3 µM; in the assay on DU-145 prostate it was above 100 µM. Further, the TGI was above 100 µM in the assay on HS 578T breast; above 100 µM with COLO 205 colon; above 100 µM in the assay on SK-MEL-28 melanoma; above 91 µM in the assay with SF-295 CNS; above 100 µM in the assay on NCI-H23 lung; above 100 µM in the assay with TK-10 renal. Moreover, the TGI was above 100 µM in the assay on UO-31 renal, above 100 µM with UACC-62 melanoma, above 76.3 µM in the assay on KM12 colon and 32.9 µM in the assay on 786-0 renal.
On to `CCOC(=O)/C=C(/C(=O)OCC)n1ccc(=O)n(CC(=O)OCC)c1=O`, for which the TGI in the assay on UACC-257 melanoma stood at 7.72 µM; in the assay with HOP-62 NSCLC, 34.7 µM; with SF-268 CNS, 10.9 µM; in the assay on SK-OV-3 ovarian, 27.6 µM; in the assay with NCI-H522 lung it was 0.624 µM; in the assay with DU-145 prostate, 17.1 µM. The TGI stood at 26.4 µM in the assay with HS 578T breast; 1.63 µM in the assay on COLO 205 colon; 3.32 µM with SK-MEL-28 melanoma; 28.1 µM in the assay with SF-295 CNS; 3.77 µM with NCI-H23 lung; 2.52 µM with TK-10 renal. Also, the TGI in the assay on UO-31 renal was found to be 3.03 µM; in the assay on UACC-62 melanoma, 3.24 µM; in the assay on KM12 colon, 7.95 µM; in the assay with 786-0 renal it was 1.67 µM. The GI50 in the assay on COLO 205 colon is 0.361 µM.
Regarding `C[C@]12CC/C(=N\O)C=C1CC[C@@H]1[C@@H]2CC[C@]2(C)C(=N/O)/C(=C/c3ccncc3)C[C@@H]12`, the TGI is 80.2 µM with UACC-257 melanoma; above 100 µM in the assay with HOP-62 NSCLC; above 100 µM in the assay with SF-268 CNS; above 100 µM with SK-OV-3 ovarian; 99.2 µM in the assay on NCI-H522 lung; above 100 µM in the assay with DU-145 prostate. The TGI in the assay with HS 578T breast, in the assay with COLO 205 colon, in the assay with SK-MEL-28 melanoma, with SF-295 CNS, in the assay on NCI-H23 lung and with TK-10 renal was above 100 µM in each case. For the same compound, the TGI in the assay on UO-31 renal is 24.3 µM; in the assay with UACC-62 melanoma it was 35 µM; in the assay on KM12 colon, above 100 µM; in the assay with 786-0 renal, above 100 µM.
For `Nc1ncnc2c1cnn2COCC(O)CO` (centres undefined), the TGI in the assay on UACC-257 melanoma, with HOP-62 NSCLC, in the assay on SF-268 CNS, with SK-OV-3 ovarian, with NCI-H522 lung and with DU-145 prostate was above 100 µM in each case. For the same compound, the TGI in the assay on HS 578T breast, in the assay with COLO 205 colon, in the assay with SK-MEL-28 melanoma, with SF-295 CNS, in the assay with NCI-H23 lung and in the assay with TK-10 renal was above 100 µM throughout. Moreover, the TGI with UO-31 renal, in the assay with UACC-62 melanoma, in the assay with KM12 colon and in the assay with 786-0 renal was above 100 µM throughout.
